Structures can show the parent of a compound that is named as a salt. Calls of active or inactive are those of the source. For most assays here, no stated cut-off is given here; in the data, actives have a measured EC50 and inactives only a lower limit.
Columns and labels:
[1] = NIH-3T3 fibroblast cytotoxicity, dose response, cytotoxicity control, cell-based, fluorescence, Alamar Blue, secondary assay (AID 2327); assay type: functional;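 further: NIH-3T3 mouse fibroblasts cultured with fluconazole at 8 µg/mL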
[2] = C. albicans growth with fluconazole, confirmation, fluorescence, retest (AID 2467); assay type: functional, cell-based
[3] = molecular target: T1, Heat shock factor protein 1 (Mus musculus, UniProt P38532); assay: HSF1 potentiators in luciferase reporter cells, confirmation, cell-based, NIH3T3, luminescence, dose retest (AID 435004); assay type: functional;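 further: stress induced by proteasome inhibitor MG132 added 30 min after compound; luciferase reporter driven by HSF1 response element in NIH3T3 cells; actives raise luminescence as potentiators of the MG132 stress response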
T1 sequence (P38532 whole entry): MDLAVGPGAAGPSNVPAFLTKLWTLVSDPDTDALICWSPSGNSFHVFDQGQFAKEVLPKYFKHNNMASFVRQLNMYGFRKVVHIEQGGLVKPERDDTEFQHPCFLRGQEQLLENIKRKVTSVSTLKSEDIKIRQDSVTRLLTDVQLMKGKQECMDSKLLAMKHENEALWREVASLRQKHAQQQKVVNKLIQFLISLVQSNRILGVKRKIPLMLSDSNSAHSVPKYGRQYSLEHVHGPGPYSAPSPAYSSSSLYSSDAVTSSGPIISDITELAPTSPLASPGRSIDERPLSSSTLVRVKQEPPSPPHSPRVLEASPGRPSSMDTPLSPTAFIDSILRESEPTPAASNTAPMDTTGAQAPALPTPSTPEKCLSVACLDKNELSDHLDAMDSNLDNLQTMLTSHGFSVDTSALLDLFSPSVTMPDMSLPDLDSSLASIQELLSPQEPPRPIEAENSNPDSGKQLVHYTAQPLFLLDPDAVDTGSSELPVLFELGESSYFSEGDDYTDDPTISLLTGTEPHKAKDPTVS

[4] = HEp-2 cell cytotoxicity, dose response, cytotoxicity control for RSV inhibitor project, HTS (AID 2410); assay type: functional; details: human respiratory syncytial virus
[5] = molecular target: T2, Corticotropin-releasing factor receptor 2/Corticotropin-releasing factor-binding protein (Homo sapiens, UniProt P24387+Q13324); assay: Dose Response confirmation of uHTS hits for small molecule antagonists of the CRF-binding protein and CRF-R2 receptor complex.; assay type: functional; details: read-out: IC50_Mean
T2 sequence (Q13324 whole entry): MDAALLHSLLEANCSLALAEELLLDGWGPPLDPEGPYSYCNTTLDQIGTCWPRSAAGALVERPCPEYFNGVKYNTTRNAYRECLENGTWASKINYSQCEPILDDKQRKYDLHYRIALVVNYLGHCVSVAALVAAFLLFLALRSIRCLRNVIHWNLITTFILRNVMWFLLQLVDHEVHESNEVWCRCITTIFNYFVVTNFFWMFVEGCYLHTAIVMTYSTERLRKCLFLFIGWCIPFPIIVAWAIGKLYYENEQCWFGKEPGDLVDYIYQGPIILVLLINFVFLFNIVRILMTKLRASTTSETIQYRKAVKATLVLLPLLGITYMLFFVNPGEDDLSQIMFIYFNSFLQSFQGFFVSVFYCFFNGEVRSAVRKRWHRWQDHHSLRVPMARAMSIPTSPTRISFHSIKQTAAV
T2 sequence (P24387 whole entry): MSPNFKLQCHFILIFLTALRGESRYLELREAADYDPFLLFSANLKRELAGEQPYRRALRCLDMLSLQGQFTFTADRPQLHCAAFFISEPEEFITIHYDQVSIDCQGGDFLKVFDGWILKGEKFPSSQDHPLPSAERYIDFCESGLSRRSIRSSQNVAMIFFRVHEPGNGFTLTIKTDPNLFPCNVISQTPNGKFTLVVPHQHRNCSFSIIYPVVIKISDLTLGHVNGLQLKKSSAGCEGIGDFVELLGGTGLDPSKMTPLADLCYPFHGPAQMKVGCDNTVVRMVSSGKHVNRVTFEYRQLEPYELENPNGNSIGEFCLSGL

[6] = molecular target: T2, Corticotropin-releasing factor receptor 2/Corticotropin-releasing factor-binding protein; assay: activators of CRF receptor 2 with binding protein – uHTS hits, confirmation (AID 602473); assay type: functional; details: read-out: EC50_Mean
[7] = molecular target: FAD-linked sulfhydryl oxidase ALR (Homo sapiens, UniProt P55789); assay: inhibitors of human ALR sulfhydryl oxidase, dose response, biochemical, H2O2 detection, luminescence, cherry-pick (AID 493248)
[8] = Luminescence Cell-Based Dose Retest to Confirm Inhibitors of Cancer Stem Cells. [Related pubchem assays (depositor defined):AID2717, AID2721]; assay type: functional; details: Homo sapiens
[9] = molecular target: T3, RNA-binding protein pos-1 (Caenorhabditis elegans, UniProt G5EF15); assay: inhibitors of POS-1/mex-3 RNA binding, dose response, biochemical, fluorescence polarization (AID 1964);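 further: purified POS-1 fused to maltose binding protein made in E. coli; potency of compounds blocking POS-1 binding to fluorescent RNA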
T3 sequence (G5EF15 whole entry): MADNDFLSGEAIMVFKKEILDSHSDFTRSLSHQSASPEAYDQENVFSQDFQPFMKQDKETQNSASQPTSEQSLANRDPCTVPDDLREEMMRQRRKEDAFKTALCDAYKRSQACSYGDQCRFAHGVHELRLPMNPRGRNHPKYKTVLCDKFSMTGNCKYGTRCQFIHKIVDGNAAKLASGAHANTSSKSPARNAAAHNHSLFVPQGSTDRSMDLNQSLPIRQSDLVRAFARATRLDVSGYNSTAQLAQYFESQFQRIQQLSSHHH

[10] = molecular target: T4, Zinc finger protein mex-5 (Caenorhabditis elegans, UniProt Q9XUB2); assay: MEX-5/TCR-2 RNA interaction inhibitors, dose response, biochemical, C. elegans, fluorescence polarization (AID 1960)
T4 sequence (Q9XUB2 whole entry): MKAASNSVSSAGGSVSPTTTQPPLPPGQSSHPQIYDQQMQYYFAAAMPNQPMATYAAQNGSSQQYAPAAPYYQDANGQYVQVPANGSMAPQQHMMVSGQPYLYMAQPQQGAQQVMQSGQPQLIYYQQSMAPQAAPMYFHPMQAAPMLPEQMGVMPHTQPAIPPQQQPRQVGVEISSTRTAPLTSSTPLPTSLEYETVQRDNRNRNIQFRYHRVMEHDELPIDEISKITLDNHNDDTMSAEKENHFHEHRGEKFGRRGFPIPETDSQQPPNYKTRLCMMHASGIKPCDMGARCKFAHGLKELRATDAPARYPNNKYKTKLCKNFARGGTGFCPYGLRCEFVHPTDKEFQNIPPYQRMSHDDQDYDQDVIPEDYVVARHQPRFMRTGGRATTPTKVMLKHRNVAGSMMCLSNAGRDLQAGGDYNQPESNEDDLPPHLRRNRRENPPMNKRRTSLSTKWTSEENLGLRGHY

[11] = system: Streptococcus sp. 'group A'; assay: growth inhibition of control SK(-) GAS strain, dose response, counter-screen for streptokinase expression inhibitor project, luminescence, kanamycin, BacTiterGlo, confirmation (AID 1900); assay type: functional, organism-based
Streptokinase A = molecular target: T5, Streptokinase A (Streptococcus pyogenes serotype M1, UniProt P10520); assay: S. pyogenes streptokinase expression inhibitors, potency, dose response, plasminogen activation absorbance, OD405 (AID 1914); assay type: functional, Streptococcus pyogenes M1 GAS;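 further: secreted streptokinase activity via plasminogen activation per viability signal from cell pellet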
T5 sequence (P10520 whole entry): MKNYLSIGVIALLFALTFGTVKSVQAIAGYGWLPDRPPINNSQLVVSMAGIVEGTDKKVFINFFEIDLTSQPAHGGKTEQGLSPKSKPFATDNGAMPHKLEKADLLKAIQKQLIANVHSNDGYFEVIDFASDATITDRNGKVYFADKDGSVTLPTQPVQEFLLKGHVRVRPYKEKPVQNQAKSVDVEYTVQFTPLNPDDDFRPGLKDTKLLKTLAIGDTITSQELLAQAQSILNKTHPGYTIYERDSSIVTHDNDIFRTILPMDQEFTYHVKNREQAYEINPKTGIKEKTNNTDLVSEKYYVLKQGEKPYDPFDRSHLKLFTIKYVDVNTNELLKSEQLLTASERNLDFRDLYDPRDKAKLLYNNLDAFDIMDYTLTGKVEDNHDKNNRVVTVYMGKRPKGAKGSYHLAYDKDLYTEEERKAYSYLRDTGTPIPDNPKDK

Streptococcus = assay: Group A Streptococcus viability loss, dose response, counter-screen for streptokinase expression inhibitor project, luminescence, BacTiterGlo (AID 1915); assay type: functional, organism-based;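 further: potency for reduction of bacterial viability or growth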
[12] = inhibitors of firefly luciferase expression or activity, dose response, H4 neuroglioma cells, luminescence (AID 1990); assay type: functional, cell-based
[13] = Luminescence Cell-Based Dose Response HTS to Identify Inhibitors of 5'UTR Stem-Loop Driven Prion Protein mRNA Translation in H4 Neuroglioblastoma Cells. [Related pubchem assays: 1827 (Project Summary), 1813 (Primary HTS)]; assay type: functional
[14] = inhibitors of SNCA 5'UTR-driven reporter translation, confirmation, H4 neuroglioma cells, luminescence (AID 1988); assay type: functional, cell-based

Sequence of FAD-linked sulfhydryl oxidase ALR (P55789 whole entry): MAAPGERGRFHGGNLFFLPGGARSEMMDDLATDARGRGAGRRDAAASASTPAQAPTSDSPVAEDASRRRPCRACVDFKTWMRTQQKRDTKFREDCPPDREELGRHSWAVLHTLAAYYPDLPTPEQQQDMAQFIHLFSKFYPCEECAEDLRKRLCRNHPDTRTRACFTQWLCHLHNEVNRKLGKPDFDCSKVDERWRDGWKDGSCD

## CC1=CC2=C(OC1N(C)C)c1cccc3cccc(c13)C2=O (stereo not given)
[1]
  EC50: > 150 µM (inactive)
[2]
  EC50: > 38 µM (not active)
[3]
  EC50: > 260 µM (inactive)

## O=C(Cn1c(=O)sc2ccccc21)Nc1nc2c(s1)CCCC2
[4]
  CC50: > 50 µM (active)

## N#C/C(=C(/O)COc1ccc(Cl)cc1)c1nc2ccccc2s1
[1]
  EC50: 93.5 µM (active)
[2]
  EC50: 0.191 µM (active)
[5]
  IC50: < 0.368 µM (active)
[6]
  EC50: > 53 µM (inactive)

## Nc1cc(=O)[nH]n1C1CCN(c2ccccc2)CC1
[7]
  AC50: 2.61 µM (active)

## COc1cc(/C=C/c2noc(-c3ccccc3O)n2)ccc1OC(C)=O
[8]
  AC50: 3.44 µM (active)

## CN(C)c1c([N+](=O)[O-])cc2[nH]c(O)nc2c1[N+](=O)[O-]
[4]
  CC50: 24.7 µM (active)

## Cc1ccccc1-n1c(-c2ccc(Cl)cc2)cnc1SCC(=O)NC1CCS(=O)(=O)C1 (stereo not given)
[3]
  EC50: > 260 µM (inactive)

## COc1ccc(CC(=O)ONC(=N)c2cccc([N+](=O)[O-])c2)cc1
[5]
  IC50: > 47.1 µM (inactive)
[6]
  EC50: > 53 µM (inactive)

## CCOC(=O)c1c(-c2cccc(Cl)c2)n[nH]c1N1C(=O)Nc2ccccc2N1O
[5]
  IC50: > 47.1 µM (inactive)
[6]
  EC50: > 53 µM (inactive)

## N#Cc1ccsc1NC(=O)CN1CCN(S(=O)(=O)c2ccc3ccccc3c2)CC1
[3]
  EC50: > 260 µM (inactive)

## CCN(CCNC(=O)CN1CCN(Cc2ccc(Cl)cc2)C1=O)c1ccccc1
[3]
  EC50: > 260 µM (inactive)

## CCOC(=O)Cn1c2c(c(-c3ccccc3OC)cc1=O)CCCC2
[5]
  IC50: > 47.1 µM (inactive)
[6]
  EC50: > 53 µM (inactive)

## COCCCNC(CC(=O)Nc1cc(C)cc(C)c1)C(=O)O (stereo not given)
[9]
  EC50: > 300 µM (not active)
[10]
  EC50: > 300 µM (not active)

## O=S(=O)(NCC(c1ccco1)N1CCc2ccccc21)c1ccccc1 (stereo not given)
[7]
  AC50: 2.49 µM (active)

## CCOc1ccc(S(=O)(=O)Nc2cccnc2)cc1
[5]
  IC50: > 47.1 µM (inactive)
[6]
  EC50: > 53 µM (inactive)

## Cc1ccc(S(=O)(=O)Nc2cc(C(=O)Nc3cc(C)cc(C)c3)ccc2Cl)cc1
[5]
  IC50: > 47.1 µM (inactive)
[6]
  EC50: > 53 µM (inactive)

## CCN(CC)c1ccc(CN(C(=O)c2cc(OC)c(OC)c(OC)c2)C2CCS(=O)(=O)C2)cc1 (stereo not given)
[7]
  AC50: 9.07 µM (active)

## CCc1nc(SCC(=O)Nc2ccccc2OC)c2c(C)c(C)sc2n1
[4]
  CC50: 26 µM (active)
[11]
  EC50: 8.64 µM (active)
Streptokinase A
  EC50: > 150 µM (not active)
Streptococcus
  EC50: > 150 µM (not active)

## CCOC(=O)c1c(NC(=O)c2nn(CC)cc2Br)c(C#N)nn1-c1ccccc1
[12]
  EC50: 22.5 µM (active)
[13]
  EC50: > 120 µM (not active)
[14]
  EC50: > 120 µM (not active)
[3]
  EC50: > 260 µM (inactive)

## CCCCN(C)C(=O)C1CCC(CNS(=O)(=O)c2ccc3c(c2)CC(C)N3C(=O)C2CC2)CC1 (stereo not given)
[3]
  EC50: > 260 µM (inactive)

## NC(=O)c1ccc2nc(-c3ccccc3)c(-c3ccccc3)nc2c1
[5]
  IC50: > 47.1 µM (inactive)
[6]
  EC50: > 53 µM (inactive)

## Cc1cc(C)n2nc(N)c(N=Nc3cccc(Cl)c3)c2n1
[3]
  EC50: > 260 µM (inactive)

## CCOC(=O)c1c(C)[nH]c(C(=O)COC(=O)c2ccccc2NC(=O)c2ccco2)c1C
[4]
  CC50: > 50 µM (active)

## CCCc1n[nH]c2c1C(c1cc(OC)ccc1F)C(C#N)=C(N)O2 (stereo not given)
[3]
  EC50: > 260 µM (inactive)

## C=CCn1c(S)nnc1Cc1cccc2ccccc12
[7]
  AC50: 23.3 µM (active)

## COc1ccnc(N2CCN(c3ccccc3)CC2)c1C#N
[1]
  EC50: > 160 µM (inactive)
[2]
  EC50: > 38 µM (not active)
[7]
  AC50: 1.27 µM (active)

## CC(C)c1ccc(/C=C2\C(=N)N3N=C(CC(=O)N4CCCCC4)SC3=NC2=O)cc1
[7]
  AC50: 5.61 µM (active)

## NC(=O)c1ccc(NC(=O)COC(=O)c2c3c(nc4ccccc24)/C(=C\c2cccs2)CCC3)cc1
[8]
  AC50: 10.4 µM (active)

## COc1ccc2sc(-c3ccc(SC)cc3)c(C#CCO)c2c1
[8]
  AC50: 9.22 µM (active)

## CCCCNC(=O)c1cn(CC)c2ccc(S(=O)(=O)N3CCCCCC3)cc2c1=O
[5]
  IC50: > 47.1 µM (inactive)
[6]
  EC50: > 53 µM (inactive)

## COc1c2c(c(OC)c3ccccc13)[C@@]1(OC2)O[C@H](CCO)C[C@H](O)[C@H]1O
[5]
  IC50: > 47.1 µM (inactive)
[6]
  EC50: > 53 µM (inactive)

## O=c1c2c(O)cc(-c3ccccc3)nc2[nH]n1-c1ccccc1
[7]
  AC50: 3.54 µM (active)

## Cc1occc1C(=O)N/N=C/C(Br)=C\c1ccccc1
[4]
  CC50: 22.4 µM (active)

## Cn1ccc(/C=N/NC2=NC(=O)CS2)n1
[4]
  CC50: 24.5 µM (active)

## Cc1cccc(/C=N/n2c(S)nnc2-c2ccccn2)c1
[7]
  AC50: 67.5 µM (active)

## C/C(=N\NC(=O)C1CC1)c1ccc(OC(F)F)cc1OC(F)F
[4]
  CC50: 30.8 µM (active)

## CN(CCOc1ccc(CC2SC(=O)NC2=O)cc1)c1ccccn1 (stereo not given) [ROSIGLITAZONE MALEATE]
[5]
  IC50: > 47.1 µM (inactive)
[6]
  EC50: > 53 µM (inactive)

Reference: ChEMBL document CHEMBL1201862, “PubChem BioAssay data set” (2004)
